“And” between values parts separate entries of the source, which are not always exact repeats. Equal values may be shown once.
How the values were obtained:
[1] = tested on: bone marrow cells (megakaryocyte colony formation); assay: Megakaryocyte colony formation-stimulating activity (ACHE-stained colonies, bone marrow cells with IL-3); format: cell-based, BALB/c mouse; conditions: with IL-3 100 U/ml, 7 days
Procedure: An eight-weeks-old BALB/c mouse was killed. Its femurs and cervical vertebrae were taken out, and both end sections thereof were cut off. Bone marrow cells were collected from the pieces cut off from the femurs and cervical vertebrae using a syringe containing IMDM (430-2200EA prepared by Gibco Co.), and then blown into a test tube. The test tube was allowed to stand for 5 minutes, and the supernatant was collected with a pipet. To a reaction mixture comprising the bone marrow cells (50,000 cells), bovine serum albumin (2%: A4508 made by Sigma Co.), transferrin (600 μg/ml 652202 made by Boehringer Mannheim Co.), IL-3 (100 U/ml), cholesterol (16 μg/ml: 036-0641 made by Wako Co.) and agar (0.6%: 0142-02 made by Difco Laboratories) were separately added the test compounds at various concentrations, and 1 ml each of the mixtures was put into a 35-mm dish (Lux Co.), followed by incubation under the conditions of 37° C., 5% CO2 and a humidity of 95% or more for 7 days. Separately, IL-3 alone was added to the bone marrow cells to prepare a control, whereas a positive control was prepared by adding 200 U/ml IL-6 to the above-mentioned reaction mixture. After the incubation was completed, the agar was dried over a filter paper (1001-055 made by Whatman Co.) and then fixed with 2.5% glutaraldehyde, followed by acetylcholinesterase staining (ACHE staining).
The ACHE staining was carried out by the method described below.
ACHE staining: To each sample was added a solution comprising 0.67 mg/ml acetylthiocholine iodide, 2.94 mg/ml sodium citrate, 7.5 mg/ml copper (II) sulfate and 1.65 mg/ml potassium ferricyanide, and the mixture was allowed to stand at room temperature in the dark for 4-6 hours.
A group of 4 or more megakaryocytes which were stained reddish brown was regarded as a colony, and the number of colonies per dish was calculated using a microscope. The results are shown in Table 2 as relative values to the control.

Acute toxicity test = conditions: mouse, in vivo, ip; male DDY mice, intraperitoneal, survival after 24 hours; read-out: LD50 (50% survival dose)
Procedure: To 6-weeks-old male DDY mice (3 per group) was intraperitoneally administered 0.2 ml of a solution of a test compound in a phosphate-buffered physiological saline. The 50% survival doses (LD50) were calculated from the survival rate after 24 hours. The LD50 for Compounds I-1, 17, 25, 26, 30-33, 35, 40 and 52 was >1 mg/kg, while that for all the other compounds was >30 mg/kg.

platelets = assay: Platelet production-stimulating activity in mice; format: in vivo, BALB/c mice; conditions: 7.5 mg/kg/day × 5, caudal vein; for Number of platelets, individual mouse: 7.5 mg/kg/day
Procedure: BALB/c mice (male, 7-weeks-old) were divided into 2 groups. To one group (control group) was administered a solvent (1% lactic acid, 4% aqueous solution of glucose) alone. On the other hand, the test group (Compound I-1-administered group) received 0.2 ml of a solution of Compound I-1 in the above solvent at a dose of 7.5 mg/kg via the caudal vein once a day for 5 days (Day 1-Day 5). On the day before the administration (Day 0) and the seventh day after the start of administration (Day 7), the ninth day (Day 9), the 14th day (Day 14) and the 21st day (Day 21), 20 μl of blood was collected from the fundus oculi vein of the mice of each group, and the number of the platelets was counted with a microcell counter (Type CC-180A made by Toa Iryo Denshi Co.).

Structure (SMILES)	Relative value (megakaryocyte colonies, control = 100) ([1]; 0.1 nM)	Relative value (megakaryocyte colonies, control = 100) ([1]; 1 nM)	Relative value (megakaryocyte colonies, control = 100) ([1]; 10 nM)	LD50 at 24 h (Acute toxicity test) [mg/kg]	further results
CNC1CC2OC(C)(C1OC)n1c3ccc(C(C)=O)cc3c3c4c(c5c6cc(C(C)=O)ccc6n2c5c31)C(=O)NC4 (stereo not shown) [Compound I-31]	76	94	109	> 1	
COC(=O)C1(O)CC2OC1(C)n1c3ccccc3c3c4c(c5c6ccccc6n2c5c31)C(=O)NC4 (stereo not shown) [Compound I-35, K-252a]				> 1	Relative value (megakaryocyte colonies, control = 100) ([1]; 1.0 pM): 130; Relative value (megakaryocyte colonies, control = 100) ([1]; 10 pM): 140
CNC1CC2OC(C)(C1OC)n1c3ccccc3c3c4c(c5c6ccccc6n2c5c31)C(=O)NC4O (stereo not shown) [Compound I-1]		127		> 1	Number of platelets, individual mouse (platelets; Day 0 (day before administration)): 92.6 × 10^4 /mm^3 and 90.5 × 10^4 /mm^3 and 94.2 × 10^4 /mm^3 and 117.6 × 10^4 /mm^3 and 111.7 × 10^4 /mm^3 and 95.5 × 10^4 /mm^3; Number of platelets (Average) (platelets; Day 0 (day before administration), control average 110.9): 100.4 × 10^4 /mm^3; % Relative value (number of platelets, Day 0 = 100) (platelets; Day 0, control 100): 100%; Number of platelets, individual mouse (platelets; Day 7): 103.1 × 10^4 /mm^3 and 91.8 × 10^4 /mm^3 and 119.4 × 10^4 /mm^3 and 155.7 × 10^4 /mm^3 and 136.3 × 10^4 /mm^3 and 111.2 × 10^4 /mm^3; % Relative value (number of platelets, Day 0 = 100) (platelets; Day 7, control 120.3): 119.1%; Number of platelets (Average) (platelets; Day 7, control average 133.4): 119.6 × 10^4 /mm^3; Number of platelets, individual mouse (platelets; Day 9): 125.3 × 10^4 /mm^3 and 160.0 × 10^4 /mm^3 and 144.5 × 10^4 /mm^3 and 136.1 × 10^4 /mm^3 and 146.8 × 10^4 /mm^3; % Relative value (number of platelets, Day 0 = 100) (platelets; Day 9, control 103.2): 144.9%; Number of platelets (Average) (platelets; Day 9, control average 114.5): 145.5 × 10^4 /mm^3; Number of platelets, individual mouse (platelets; Day 14): 125.3 × 10^4 /mm^3 and 106.4 × 10^4 /mm^3 and 121.1 × 10^4 /mm^3 and 145.4 × 10^4 /mm^3 and 112.3 × 10^4 /mm^3 and 115.0 × 10^4 /mm^3; % Relative value (number of platelets, Day 0 = 100) (platelets; Day 14, control 98.4): 120.4%; Number of platelets (Average) (platelets; Day 14, control average 109.1): 120.9 × 10^4 /mm^3; Number of platelets, individual mouse (platelets; Day 21): 133.9 × 10^4 /mm^3 and 202.7 × 10^4 /mm^3 and 153.0 × 10^4 /mm^3 and 139.6 × 10^4 /mm^3 and 135.5 × 10^4 /mm^3 and 163.9 × 10^4 /mm^3; % Relative value (number of platelets, Day 0 = 100) (platelets; Day 21, control 103.1): 154.2%; Number of platelets (Average) (platelets; Day 21, control average 114.3): 154.8 × 10^4 /mm^3
CNC1CC2OC(C)(C1OC)n1c3ccccc3c3c4c(c5c6cc(O)ccc6n2c5c31)C(=O)NC4 (stereo not shown) [Compound I-52]				> 1	
CNC1CC2OC(C)(C1OC)n1c3ccccc3c3c4c(c5c6cc(C(C)=O)ccc6n2c5c31)C(=O)NC4 (stereo not shown) [Compound I-30]	111	119	117	> 1	
CCCOc1ccc2c(c1)c1c3c(c4c5ccccc5n5c4c1n2C1CC(NC)C(OC)C5(C)O1)CNC3=O (stereo not shown) [Compound I-33]	101	114	105	> 1	
CN[C@@H]1C[C@H]2O[C@@](C)([C@@H]1OC)n1c3ccccc3c3c4c(c5c6ccccc6n2c5c31)C(=O)NC4 [Compound I-17, staurosporine]				> 1	Relative value (megakaryocyte colonies, control = 100) ([1]; 1.0 pM): 119; Relative value (megakaryocyte colonies, control = 100) ([1]; 10 pM): 107
CNC1CC2OC(C)(C1OC)n1c3ccc(C=O)cc3c3c4c(c5c6cc(C=O)ccc6n2c5c31)C(=O)NC4 (stereo not shown) [Compound I-32]	76	94	109	> 1	
COC1C(N(C)C)CC2OC1(C)n1c3ccccc3c3c4c(c5c6ccccc6n2c5c31)C(=O)NC4 (stereo not shown) [Compound I-25]	119	124	100	> 1	
CCCN(C)C1CC2OC(C)(C1OC)n1c3ccccc3c3c4c(c5c6ccccc6n2c5c31)C(=O)NC4 (stereo not shown) [Compound I-26]	108	121	111	> 1	
COC(=O)C1(OC)CC2OC1(C)n1c3ccc(Br)cc3c3c4c(c5c6cc(Br)ccc6n2c5c31)C(=O)NC4 (stereo not shown) [Compound I-40]	109	125	114	> 1	
COC1C(N(C)C(=O)OCc2ccccc2)CC2OC1(C)n1c3ccccc3c3c4c(c5c6ccccc6n2c5c31)C(=O)N(C)C4 (stereo not shown) [Compound I-18]	118	88	84		
COC1C(N(C)C(C)=O)CC2OC1(C)n1c3ccccc3c3c4c(c5c6ccccc6n2c5c31)C(=O)NC4 (stereo not shown) [Compound I-28]	89	101	95		
CCCCOC(=O)C1(O)CC2OC1(C)n1c3ccccc3c3c4c(c5c6ccccc6n2c5c31)C(=O)NC4 (stereo not shown) [Compound I-15]	120	121	132		

— patent publication US5674867A, “Indolocarbazole derivatives and therapeutic method for stimulating megakaicyocyte production” (Kyowa Hakko Kogyo Co., Ltd., priority 1992, dated 1997)
